From patent US6509379B1, “Phenylacetic acid derivatives, process and intermediate products for their preparation, and their use as fungicides and pesticides” (BASF Aktiengesellschaft, priority 1995, dated 2003)

Key:
[1] = system: leaf rust of wheat (Puccinia recondite); experiment: Efficacy against leaf rust of wheat (spray after infection of potted wheat seedlings); format: in vivo; settings: wheat seedlings cv. Kanzler, sprayed 24 hours after dusting with spores, evaluated after 8 days, untreated 70
Procedure: (§1) The active ingredients are formulated as a 20% strength emulsion in a mixture of 70% by weight of cyclohexanone, 20% by weight of Nekanil® LN (Lutensol® AP6, wetting agent having emulsifier and dispersing action based on ethoxylated alkylphenols) and 10% by weight of Emulphor® EL (Emulan® EL, emulsifier based on ethoxylated fatty alcohols) and diluted with water to give the desired concentration. The experiments were evaluated visually.
Leaves of wheat seedlings cv. “Kanzler” in pots were dusted with leaf rust spores (Puccinia recondite). The pots were then placed for 24 hours in a chamber with high atmospheric humidity (90 to 95%) at from 20 to 22° C. During this time, the spores germinated, and the germ tubes penetrated the leaf tissue. The infected plants were subsequently sprayed to runoff point with aqueous spray mixtures comprising 80% of active ingredient of Table 1 and 20% of emulsifier in the dry matter. After the spray coating had dried on, the test plants were placed in a greenhouse at from 20 to 22° C. and a relative atmospheric humidity of 65 to 70%. After 8 days, the extent of rust development on the leaves was determined.

[2] = system: powdery mildew of wheat (Erysiphe graminis var. tritici); experiment: Efficacy against powdery mildew of wheat (protective spray on potted wheat seedlings); format: in vivo; settings: wheat seedlings cv. Frühgold, sprayed 24 hours before dusting with oidia, evaluated after 7 days, untreated 70
Procedure: as §1
Leaves of wheat seedlings cv. “Frühgold” in pots were sprayed with aqueous spray mixture comprising 80% of active ingredient of Table 1 and 20% of emulsifier in the dry matter and, 24 hours after the spray coating had dried on, dusted with oidia (spores) of powdery mildew of wheat (Erysiphe graminis var. tritici). The test plants were subsequently placed in a greenhouse at from 20 to 22° C. and a relative atmospheric humidity of 75 to 80%. After 7 days, the extent of mildew development was determined.

Row | melting point | SMILES | % infection of the leaves after application of an aqueous preparation comprising . . . ppm of active ingredient ([1]; 16 ppm) | % infection of the leaves after application of an aqueous preparation comprising 250 ppm of active ingredient [2] | % infection of the leaves after application of an aqueous preparation comprising . . . ppm of active ingredient ([1]; 63 ppm)
1 |  | CNC(=O)C(=NOC)c1ccccc1CON=C(C)C(=NOC)c1ccc(N(C)C(C)=O)cc1 [I.29] | 5% |  | 
2 |  | CC=C(C(=O)OC)c1ccccc1CON=C(C)C(=NOC)c1ccc(NC(=O)C(C)(C)C)cc1 [I.43] |  | 15% | 5%
3 |  | CC=C(C(=O)OC)c1ccccc1CON=C(C)C(=NOC)c1ccc(NC(=O)CC)cc1 [I.20] |  | 15% | 
4 | 168 to 170 °C | CNC(=O)/C(=N/OC)c1ccccc1CO/N=C(C)/C(=N/OC)c1ccc(N(C)C(=O)C(C)(C)C)cc1 [I.10] |  |  | 
5 |  | CCC(=O)N(CC)c1ccc(C(=NOC)C(C)=NOCc2ccccc2C(=NOC)C(=O)NC)cc1 [I.8] |  | 0% | 0%
6 |  | C#CCON=C(C(C)=NOCc1ccccc1C(=COC)C(=O)OC)c1ccc(C(C)=NOCC)cc1 [I.56] |  |  | 15%
7 |  | CCCCN(C(=O)C(C)(C)C)c1ccc(C(=NOC)C(C)=NOCc2ccccc2C(=NOC)C(=O)NC)cc1 [I.27] | 3% | 5% | 
8 |  | CCN(C(=O)C(C)(C)C)c1ccc(C(=NOC)C(C)=NOCc2ccccc2C(=NOC)C(=O)NC)cc1 [I.26] |  | 15% | 
9 |  | CNC(=O)/C(=N/OC)c1ccccc1CO/N=C(C)/C(=N/OC)c1ccc(/C(C)=N/OC)cc1 [I.52] | 0% | 15% | 
10 |  | CON=Cc1ccc(C(=NOC)C(C)=NOCc2ccccc2C(=NOC)C(=O)OC)cc1 [I.53] |  | 15% | 
11 |  | CC=C(C(=O)OC)c1ccccc1CON=C(C)C(=NOC)c1ccc(N(C)C(C)=O)cc1 [I.40] |  | 15% | 0%
12 |  | CC=C(C(=O)OC)c1ccccc1CON=C(C)C(=NOC)c1ccc(N(CC)C(C)=O)cc1 [I.41] |  | 15% | 15%
13 |  | CC=C(C(=O)OC)c1ccccc1CON=C(C)C(=NOC)c1ccc(N(C)C(=O)CC)cc1 [I.21] |  | 5% | 
14 |  | CCON=C(C)c1ccc(C(=NOC)C(C)=NOCc2ccccc2C(=NOC)C(=O)NC)cc1 [I.55] | 0% | 15% | 
15 |  | CC=C(C(=O)OC)c1ccccc1CON=C(C)C(=NOC)c1ccc(N(C)C(=O)C(C)(C)C)cc1 [I.44] |  |  | 5%
16 |  | CC=C(C(=O)OC)c1ccccc1CON=C(C)C(=NOC)c1ccc(N(CC)C(=O)CC)cc1 [I.22] |  | 15% | 
17 |  | CCCN(C(=O)CC)c1ccc(C(=NOC)C(C)=NOCc2ccccc2C(=COC)C(=O)OC)cc1 [I.19] |  | 5% | 
18 | 111 to 113 °C | CO/N=C(/C(C)=N/OCc1ccccc1/C(=N\OC)C(=O)OC)c1ccc(N(C)C(=O)C(C)(C)C)cc1 [I.12] |  | 5% | 15%

Row | melting point | SMILES | % infection of the leaves after application of an aqueous preparation comprising . . . ppm of active ingredient ([1]; 16 ppm) | % infection of the leaves after application of an aqueous preparation comprising 250 ppm of active ingredient [2] | % infection of the leaves after application of an aqueous preparation comprising . . . ppm of active ingredient ([1]; 63 ppm)
19 |  | CC=C(C(=O)OC)c1ccccc1CON=C(C)C(=NOC)c1ccc(N(CC)C(=O)C(C)(C)C)cc1 [I.45] |  | 15% | 15%
20 |  | CC=C(C(=O)OC)c1ccccc1CON=C(C)C(=NOC)c1ccc(N(CCC)C(=O)CC)cc1 [I.23] |  | 15% | 
21 |  | CCC(=O)N(C)c1ccc(C(=NOC)C(C)=NOCc2ccccc2C(=NOC)C(=O)NC)cc1 [I.5] |  | 5% | 0%
22 |  | CCCN(C(C)=O)c1ccc(C(=NOC)C(C)=NOCc2ccccc2C(=NOC)C(=O)NC)cc1 [I.31] | 0% | 15% | 
23 |  | CNC(=O)C(=NOC)c1ccccc1CON=C(C)C(=NOC)c1ccc(N(OC)C(=O)OC)cc1 [I.25] |  | 5% | 
24 |  | CNC(=O)C(=NOC)c1ccccc1CON=C(C)C(=NOC)c1ccc(C=NOC)cc1 [I.54] | 0% | 5% | 
25 |  | CCCN(C(=O)C(C)(C)C)c1ccc(C(=NOC)C(C)=NOCc2ccccc2C(=NOC)C(=O)NC)cc1 [I.32] | 0% | 15% | 
26 | 112 to 114 °C | CO/N=C(\C)c1ccc(C(=N\OC)/C(C)=N/OCc2ccccc2/C(=N\OC)C(=O)OC)cc1 [I.51] |  |  | 
27 |  | CCC(=O)Nc1ccc(C(=NOC)C(C)=NOCc2ccccc2C(=COC)C(=O)OC)cc1 [I.16] |  | 5% | 
28 |  | CCN(C(C)=O)c1ccc(C(=NOC)C(C)=NOCc2ccccc2C(=NOC)C(=O)NC)cc1 [I.30] | 15% |  | 
29 |  | CCCN(C(=O)CC)c1ccc(C(=NOC)C(C)=NOCc2ccccc2C(=NOC)C(=O)NC)cc1 [I.15] |  | 5% | 
30 |  | COC=C(C(=O)OC)c1ccccc1CON=C(C)C(=NOC)c1ccc(C=NOC)cc1 [I.59] |  | 0% | 10%
31 |  | CC=C(C(=O)OC)c1ccccc1CON=C(C)C(=NOC)c1ccc(C=NOC)cc1 [I.58] |  | 0% | 0%
32 |  | CCC(=O)N(CC)c1ccc(C(=NOC)C(C)=NOCc2ccccc2C(=COC)C(=O)OC)cc1 [I.18] |  | 5% | 
33 |  | C#CCON=C(C(C)=NOCc1ccccc1C(=COC)C(=O)OC)c1ccc(C(C)=NOC)cc1 [I.57] |  | 0% | 15%
34 |  | COC=C(C(=O)OC)c1ccccc1CON=C(C)C(=NOC)c1ccc(NC(=O)C(C)(C)C)cc1 [I.13] | 5% | 0% | 15%
35 |  | CCC(=O)N(C)c1ccc(C(=NOC)C(C)=NOCc2ccccc2C(=COC)C(=O)OC)cc1 [I.17] |  | 15% | 
36 | 114 to 116 °C | CO/N=C(/C(C)=N/OCc1ccccc1/C(=N\OC)C(=O)OC)c1ccc(NC(=O)C(C)(C)C)cc1 [I.11] |  |  | 
